Article PMC6492180, “Cytome micronucleus assays with a metabolically competent human derived liver cell line (Huh6): A promising approach for routine testing of chemicals?” (Environmental and Molecular Mutagenesis, 2018)
Read-outs that look alike come from different tables or passages of the source. Marks after values point to notes of the source that are not given here.

Assays:
[1] = tested on: HepG2; settings: cited from earlier work
[2] = tested on: HepaRG; settings: HepaRG, cited from earlier work; for MN formation with the longer exposure time, treatment for 1 or 7 days (in words): ref Josse et al., 2012
[3] = tested on: Human lymphocytes; settings: Human lymphocytes, + S9, cited from earlier work
[4] = tested on: Huh6 cells
Procedure: All experiments were performed in duplicate.
3.8–4.0 × 10^5 cells per well were seeded into 6‐well plates with 3 mL of RPMI (4% FBS) for 12 hr, then dilutions of stock solutions of the diagnostic mutagens were added for different time periods (4, 24, and 48 hr). In each experimental series solvent controls were included. Subsequently, the cells were washed twice with 3.0 mL medium. […] Finally, the cells were washed and trypsinised. Afterwards the cells were washed twice with 8.0 mL RPMI and collected on slides by cytocentrifugation (600 rpm, 5 min). The slides were air dried, fixed, and stained with DiffQuick according to the instructions of the manufacturer. For each experimental point, two cultures were tested per dose. From each culture ≥1,000 BN cells were evaluated under 400‐fold magnification (Nikon Photophot‐FXA, Tokyo, Japan). At least 2,000 binucleated cells were analyzed per dose for the determination of the different nuclear anomalies (MN, NBuds, and NBs).
The experiments were performed as described in the previous chapter. The cells were exposed only to one dose of the different mutagens and were cultivated after the seeding in 6‐well plates which contained 4% or 10% FBS in RPMI, respectively.
Data were evaluated by generalized linear model with Poisson counts. Chi‐square tests for overdispersion were applied. […] P values ≤0.05 were considered statistically significant.
^150-60 000 cells were seeded in 6 well plates with 3 ml RPMI (4% FBS), subsequently different solutions of the test compound (dissolved in medium) were added. After treatment for different time periods, the cells was washed and processed as described in the Material and Method section. […] From each culture 1000 binoculated cells were evaluated. BN-MN – number of micronucleated cells; MN - total number of micronuclei; CBPI – cytokinesis-block proliferation index
^1The experiments were conducted essentially as described in the footnote of Table S1A-I. *p≤0.05

[5] = ref IARC (2018); cited from earlier work
[6] = 10% FBS, 24 hr treatment, 50 µM
[7] = 10% FBS, 24 hr treatment, 100 µM

**Q.** Which results are given for `Cn1c(N)nc2c3cccnc3ccc21` [IQ, 2‐Amino‐3‐methyl‐3H‐imidazo[4,5‐f]quinoline]?
**A.** Lowest effective concentration (LOEC) in micronucleus experiments ([1]; HepG2, ref Knasmuller et al., 1999): 300.0 (Knasmuller et al., 1999) μM; Lowest effective concentration (LOEC) in micronucleus experiments ([2]; ref Le Hegarat et al., 2010): Negative; NOEC (highest no observable effect concentration tested) ([2]; ref Le Hegarat et al., 2010): 500 µM; Lowest effective concentration (LOEC) in micronucleus experiments ([3]; ref Fowler et al., 2014): 2200.0 µM; Lowest effective concentration (LOEC) in micronucleus experiments ([3]; ref Katic et al., 2010): 250.0 µM; MN effects after 24 hr (or longer) compared with 4 hr treatment (in words) ([4]; 4% FBS): more pronounced effects; BN-MN (number of micronucleated cells) ([4]; 4% FBS, 4hrs, 25 µM): 16.0 ± 2.8 ‰; Bridges ([4]; 4% FBS, 4hrs, 25 µM): 0.5 ± 0.7 ‰; Buds ([4]; 4% FBS, 4hrs, 25 µM): 17.5 ± 2.1 ‰; CBPI ([4]; 4% FBS, 4hrs, 25 µM): 1.9 ± 0.1; MN (total number of micronuclei) ([4]; 4% FBS, 4hrs, 25 µM): 16.0 ± 2.8 ‰; BN-MN (number of micronucleated cells) ([4]; 4% FBS, 4hrs, 50 µM): 18.0 ± 4.2 ‰; Bridges ([4]; 4% FBS, 4hrs, 50 µM): 0.5 ± 0.7 ‰; Buds ([4]; 4% FBS, 4hrs, 50 µM): 16.5 ± 0.7 ‰; CBPI ([4]; 4% FBS, 4hrs, 50 µM): 1.8 ± 0.1; MN (total number of micronuclei) ([4]; 4% FBS, 4hrs, 50 µM): 19.0 ± 4.2 ‰; BN-MN (number of micronucleated cells) ([4]; 4% FBS, 4hrs, 100 µM): 23.5 ± 5.0* ‰; Bridges ([4]; 4% FBS, 4hrs, 100 µM): 1.5 ± 0.7 ‰; Buds ([4]; 4% FBS, 4hrs, 100 µM): 21.5 ± 2.1* ‰; CBPI ([4]; 4% FBS, 4hrs, 100 µM): 1.9 ± 0.0; MN (total number of micronuclei) ([4]; 4% FBS, 4hrs, 100 µM): 24.5 ± 5.0* ‰; BN-MN (number of micronucleated cells) ([4]; 4% FBS, 24hrs, 25 µM): 18.5 ± 0.7 ‰; Bridges ([4]; 4% FBS, 24hrs, 25 µM): 0.0 ± 0.0 ‰; Buds ([4]; 4% FBS, 24hrs, 25 µM): 10.5 ± 2.1 ‰; CBPI ([4]; 4% FBS, 24hrs, 25 µM): 1.9 ± 0.0; MN (total number of micronuclei) ([4]; 4% FBS, 24hrs, 25 µM): 19.5 ± 0.7 ‰; BN-MN (number of micronucleated cells) ([4]; 4% FBS, 24hrs, 50 µM): 26.0 ± 1.4* ‰; Bridges ([4]; 4% FBS, 24hrs, 50 µM): 2.0 ± 0.0 ‰; Buds ([4]; 4% FBS, 24hrs, 50 µM): 18.5 ± 2.1* ‰; CBPI ([4]; 4% FBS, 24hrs, 50 µM): 1.7 ± 0.0; MN (total number of micronuclei) ([4]; 4% FBS, 24hrs, 50 µM): 26.5 ± 0.7 ‰; BN-MN (number of micronucleated cells) ([4]; 4% FBS, 24hrs, 100 µM): 39.0 ± 5.7* ‰; Bridges ([4]; 4% FBS, 24hrs, 100 µM): 5.5 ± 0.7 ‰; Buds ([4]; 4% FBS, 24hrs, 100 µM): 32.5 ± 5.0* ‰; CBPI ([4]; 4% FBS, 24hrs, 100 µM): 2.0 ± 0.1; MN (total number of micronuclei) ([4]; 4% FBS, 24hrs, 100 µM): 44.0 ± 1.4* ‰; BN-MN (number of micronucleated cells) ([4]; 4% FBS, 48hrs, 25 µM): 20.5 ± 2.1 ‰; Bridges ([4]; 4% FBS, 48hrs, 25 µM): 0.0 ± 0.0 ‰; Buds ([4]; 4% FBS, 48hrs, 25 µM): 22.0 ± 4.2 ‰; CBPI ([4]; 4% FBS, 48hrs, 25 µM): 1.9 ± 0.1; MN (total number of micronuclei) ([4]; 4% FBS, 48hrs, 25 µM): 21.5 ± 2.1 ‰; BN-MN (number of micronucleated cells) ([4]; 4% FBS, 48hrs, 50 µM): 32.0 ± 5.7* ‰; Bridges ([4]; 4% FBS, 48hrs, 50 µM): 1.0 ± 0.0 ‰; Buds ([4]; 4% FBS, 48hrs, 50 µM): 29.5 ± 2.1* ‰; CBPI ([4]; 4% FBS, 48hrs, 50 µM): 1.8 ± 0.1; MN (total number of micronuclei) ([4]; 4% FBS, 48hrs, 50 µM): 32.5 ± 6.4* ‰; BN-MN (number of micronucleated cells) ([4]; 4% FBS, 48hrs, 100 µM): 40.0 ± 2.8* ‰; Bridges ([4]; 4% FBS, 48hrs, 100 µM): 3.0 ± 1.4 ‰; Buds ([4]; 4% FBS, 48hrs, 100 µM): 35.5 ± 3.5* ‰; CBPI ([4]; 4% FBS, 48hrs, 100 µM): 1.7 ± 0.1; MN (total number of micronuclei) ([4]; 4% FBS, 48hrs, 100 µM): 47.5 ± 3.5* ‰; BN-MN (number of micronucleated cells) [4, 6]: 47.5 ± 3.5*; Bridges [4, 6]: 0 ± 0.0; Buds [4, 6]: 42 ± 2.8; CBPI [4, 6]: 1.9 ± 0.0; MN (total number of micronuclei) [4, 6]: 51.0 ± 1.4*; BN-MN (number of micronucleated cells) [4, 7]: 63.5 ± 6.4*; Bridges [4, 7]: 0.5 ± 0.7; Buds [4, 7]: 49 ± 1.4; CBPI [4, 7]: 1.8 ± 0.1; MN (total number of micronuclei) [4, 7]: 68.5 ± 5.0*; MN frequencies with 10% serum compared with 4% serum (in words) ([4]; 24 hr treatment): stronger effects; Lowest effective concentration (LOEC) in micronucleus experiments ([4]; Huh6): 50.0 µM; IARC classification [5]: Formation of guanine adducts, formation of DNA‐reactive metabolites which cause DNA‐adducts; activation: CYP1A2 and NAT; detoxification: GSTs and SULTs; IARC: Group 2A

**Q.** For `O=P1(N(CCCl)CCCl)NCCCO1` (stereo not shown) [cyclophosphamide], which “MN induction after 28 hr compared with 1 hr exposure (in words)” value [1] is on record?
**A.** stronger effects

**Q.** Which “MN formation with the longer exposure time, treatment for 1 or 7 days (in words)” value [2] does the source give for `ClC(Cl)=C(c1ccc(Cl)cc1)c1ccc(Cl)cc1` [dichlorodiphenyldichloroethylene] here?
**A.** no such effects

**Q.** Which “MN formation with the longer exposure time, treatment for 1 or 7 days (in words)” value [2] does the source give for `COC(=O)Nc1nc2cc(C(=O)c3cccs3)ccc2[nH]1` [noctazole] here?
**A.** no such effects
